Tested on: Rats
Experiment: Biological assay of calcitonin analogs in vivo: reduction of serum calcium concentration vs synthetic salmon calcitonin standard, 2×2 parallel line assay
Conditions: standard used in the assay; independently determined
Protocol: Biological Assay Of Calcitonin Analogs In Vivo
The biological potency of des-4-leucine-salmon calcitonin was determined by comparing the reduction of serum calcium concentration which followed administration by graded doses of des-Leu^4 -SCT and synthetic salmon calcitonin standard. Rats were divided into four groups of seven animals, and each group was assigned at random to a dose of standard or test solution. Low and high doses were chosen from the linear portion of the dose-response curve. For the salmon calcitonin standard, the values were 0.7 and 2.1 ng. peptide/100 g. body weight (BW). This dose approximates 3 and […]/100 g. BW. Peptides were given by subcutaneous injection (0.2 ml/100 g. BW) and blood was withdrawn 1 hour later for serum calcium determination. Sera are processed and analyzed within two hours of collection. […]. Results were analyzed by a 2×2 parallel line assay [Gaddum, J. H., J. Pharm. Pharmacol., 6, 345 (1953)]. The standard salmon calcitonin used was independently determined to contain greater than 4,000 IU/mg. des-Leu^4 -SCT assayed at 5400 IU/mg.

CC(C)C[C@H](NC(=O)[C@H](CCCCN)NC(=O)CNC(=O)[C@H](CC(C)C)NC(=O)[C@@H](NC(=O)[C@@H]1CSSC[C@H](N)C(=O)N[C@@H](CO)C(=O)N[C@@H](CC(N)=O)C(=O)N[C@@H](CC(C)C)C(=O)N[C@@H](CO)C(=O)N[C@@H]([C@@H](C)O)C(=O)N1)C(C)C)C(=O)N[C@@H](CO)C(=O)N[C@@H](CCC(N)=O)C(=O)N[C@@H](CCC(=O)O)C(=O)N[C@@H](CC(C)C)C(=O)N[C@@H](Cc1c[nH]cn1)C(=O)N[C@@H](CCCCN)C(=O)N[C@@H](CC(C)C)C(=O)N[C@@H](CCC(N)=O)C(=O)N[C@H](C(=O)N[C@@H](Cc1ccc(O)cc1)C(=O)N1CCC[C@H]1C(=O)N[C@@H](CCCNC(=N)N)C(=O)N[C@H](C(=O)N[C@@H](CC(N)=O)C(=O)N[C@H](C(=O)NCC(=O)N[C@@H](CO)C(=O)NCC(=O)N[C@H](C(=O)N1CCC[C@H]1C(N)=O)[C@@H](C)O)[C@@H](C)O)[C@@H](C)O)[C@@H](C)O [standard salmon calcitonin, Salmon calcitonin]
potency content of the standard salmon calcitonin: greater than 4,000 IU/mg
